What was measured:
Format in all cases: in vivo
ABUTH [1] = experiment: Post-emergence Test, ABUTH; details: sprayed after 8 days cultivation, 1000 g/ha, evaluated after 13 days
[2] = test system: Ipornoea hederacea (IPOHE); experiment: Pre-emergence Test, IPOHE; details: 1000 g/ha, evaluated after 13 days
Setaria faberi (SETFA) [3] = experiment: Pre-emergence Test, SETFA; details: 1000 g/ha, evaluated after 13 days
ABUTH [4] = experiment: Pre-emergence Test, ABUTH; details: 1000 g/ha, evaluated after 13 days
[5] = test system: Amaranthus retoflexus (AMARE); experiment: Pre-emergence Test, AMARE; details: 1000 g/ha, evaluated after 13 days
Solarium nigrum (SOLNI) [6] = experiment: Pre-emergence Test, SOLNI; details: 1000 g/ha, evaluated after 13 days
ZEAMX [7] = experiment: Post-emergence Test, ZEAMX; details: sprayed after 8 days cultivation, 1000 g/ha, evaluated after 13 days
Lolium perenne (LOLPE) [8] = experiment: Pre-emergence Test, LOLPE; details: 1000 g/ha, evaluated after 13 days
Lolium perenne (LOLPE) [9] = experiment: Post-emergence Test, LOLPE; details: sprayed after 8 days cultivation, 1000 g/ha, evaluated after 13 days
Method: (§1) Seeds of a variety of test species are sown in standard soil in pots (Amaranthus retoflexus (AMARE), Solarium nigrum (SOLNI), Setaria faberi (SETFA), Lolium perenne (LOLPE), Echinochloa crus-galli (ECHCG), Ipornoea hederacea (IPOHE)). After 8 days cultivation under controlled conditions in a glasshouse (at 24° C./16° C., day/night; 14 hours light; 65% humidity), the plants are sprayed with an aqueous spray solution derived from the formulation of the technical active ingredient in acetone/water (50:50) solution containing 0.5% Tween 20 (polyoxyethylene sorbitan monolaurate, CAS RN 9005-64-5). Compounds are applied at 1000 g/ha unless otherwise stated. The test plants are then grown in a glasshouse under controlled conditions in a glasshouse (at 24° C./16° C., day/night; 14 hours light; 65% humidity) and watered twice daily. After 13 days the test is evaluated for the percentage damage caused to the plant. The biological activities are shown in the following table on a five-point scale (5=81-100%; 4=61-80%; 3=41-60%; 2=21-40%; 1=10-20%; 0=0%; −=not tested).

[10] = test system: Echinochloa crus-galli (ECHCG); experiment: Pre-emergence Test, ECHCG; details: 1000 g/ha, evaluated after 13 days
ZEAMX [11] = experiment: Pre-emergence Test, ZEAMX; details: 1000 g/ha, evaluated after 13 days
Solarium nigrum (SOLNI) [12] = experiment: Post-emergence Test, SOLNI; details: sprayed after 8 days cultivation, 1000 g/ha, evaluated after 13 days
Method: as §1

[13] = test system: Amaranthus retoflexus (AMARE); experiment: Post-emergence Test, AMARE; details: sprayed after 8 days cultivation, 1000 g/ha, evaluated after 13 days
In short: (§2)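 Pots sown with AMARE, SOLNI, SETFA, LOLPE, ECHCG, IPOHE, kept in glasshouse (24/16 °C, 14 h light, 65% humidity), sprayed at 1000 g/ha unless stated, in acetone/water 50:50 with 0.5% Tween 20. Damage scored after 13 days on a 0–5 scale (5=81–100%, 0=0%).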

[14] = test system: Ipornoea hederacea (IPOHE); experiment: Post-emergence Test, IPOHE; details: sprayed after 8 days cultivation, 1000 g/ha, evaluated after 13 days
In short: as §2

[15] = test system: Echinochloa crus-galli (ECHCG); experiment: Post-emergence Test, ECHCG; details: sprayed after 8 days cultivation, 1000 g/ha, evaluated after 13 days
In short: as §2

Setaria faberi (SETFA) [16] = experiment: Post-emergence Test, SETFA; details: sprayed after 8 days cultivation, 1000 g/ha, evaluated after 13 days
In short: as §2

Row | SMILES | percentage damage caused to the plant, ABUTH (ABUTH [1]) | percentage damage caused to the plant, IPOHE [2] | percentage damage caused to the plant, SETFA (Setaria faberi (SETFA) [3]) | percentage damage caused to the plant, ABUTH (ABUTH [4]) | percentage damage caused to the plant, AMARE [5] | percentage damage caused to the plant, SOLNI (Solarium nigrum (SOLNI) [6]) | percentage damage caused to the plant, ZEAMX (ZEAMX [7]) | percentage damage caused to the plant, LOLPE (Lolium perenne (LOLPE) [8]) | percentage damage caused to the plant, LOLPE (Lolium perenne (LOLPE) [9]) | percentage damage caused to the plant, ECHCG [10] | percentage damage caused to the plant, ZEAMX (ZEAMX [11]) | percentage damage caused to the plant, SOLNI (Solarium nigrum (SOLNI) [12]) | percentage damage caused to the plant, AMARE [13] | percentage damage caused to the plant, IPOHE [14] | percentage damage caused to the plant, ECHCG [15] | percentage damage caused to the plant, SETFA (Setaria faberi (SETFA) [16])
1 | CO/N=C(\C)c1cccc2c1c(=O)c(C(=O)O)nn2-c1ccc(OC(F)(F)F)cc1 [Compound P2, 5-[(E)-N-methoxy-C-methyl-carbonimidoyl]-4-oxo-1-[4-(trifluoromethoxy)phenyl] cinnoline-3-carboxylic acid] | 4 (4=61-80%) | 2 (2=21-40%) | 5 (5=81-100%) | 3 (3=41-60%) | 0 (0=0%) | 2 (2=21-40%) | 3 (3=41-60%) | 4 (4=61-80%) | 3 (3=41-60%) | 5 (5=81-100%) | 4 (4=61-80%) | 2 (2=21-40%) | 1 (1=10-20%) | 3 (3=41-60%) | 4 (4=61-80%) | 4 (4=61-80%)
2 | COC(=O)c1nn(-c2ccc(OC(F)(F)F)cc2)c2cccc(-c3ccc(F)cc3)c2c1=O [Compound P6, methyl 5-(4-fluorophenyl)-4-oxo-1-[4-(trifluoromethoxy)phenyl] cinnoline-3-carboxylate] |  | 0 (0=0%) | 0 (0=0%) |  | 0 (0=0%) | 0 (0=0%) |  | 0 (0=0%) | 0 (0=0%) | 0 (0=0%) |  | 0 (0=0%) | 0 (0=0%) | 0 (0=0%) | 0 (0=0%) | 0 (0=0%)
3 | O=C(O)c1nn(-c2ccc(OC(F)(F)F)cc2)c2cccc(-c3ncco3)c2c1=O [Compound P5, 5-oxazol-2-yl-4-oxo-1-[4-(trifluoromethoxy)phenyl] cinnoline-3-carboxylic acid] |  | 0 (0=0%) | 1 (1=10-20%) |  | 0 (0=0%) | 0 (0=0%) |  | 0 (0=0%) | 2 (2=21-40%) | 0 (0=0%) |  | 2 (2=21-40%) | 1 (1=10-20%) | 0 (0=0%) | 3 (3=41-60%) | 4 (4=61-80%)
4 | CO/N=C(\C)c1cccc2c1c(=O)c(C(=O)OC)nn2-c1ccc(OC(F)(F)F)cc1 [Compound P1, methyl 5-[(E)-N-methoxy-C-methyl-carbonimidoyl]-4-oxo-1-[4-(trifluoromethoxy)phenyl] cinnoline-3-carboxylate] |  | 1 (1=10-20%) | 5 (5=81-100%) |  | 1 (1=10-20%) | 1 (1=10-20%) |  | 4 (4=61-80%) | 4 (4=61-80%) | 5 (5=81-100%) |  | 3 (3=41-60%) | 2 (2=21-40%) | 2 (2=21-40%) | 5 (5=81-100%) | 4 (4=61-80%)

From patent publication US12649722B2, “Herbicidal cinnoline derivatives” (SYNGENTA CROP PROTECTION AG, priority 2020, dated 2026)
